Assay results reported in patent publication EP4745135A1 (Gluetacs Therapeutics (Shanghai) Co., Ltd., priority 2023, dated 2025).
pIC50: −log10 of the molar value.

How the values were obtained:
[1] = molecular target: T1, human Cereblon WT GST-tagged protein (Homo sapiens, UniProt Q96SW2); experiment: CRBN-binding affinity, HTRF (CEREBLON BINDING kit); conditions: for inhibition at 0.5 µM: read-out: Inhibition Rate at 0.5 µM (%); for inhibition at 2 µM: read-out: Inhibition Rate at 2 µM (%)
T1 construct: purchased CISBIO 64BDCRBNPEH
T1 sequence (Q96SW2 whole entry): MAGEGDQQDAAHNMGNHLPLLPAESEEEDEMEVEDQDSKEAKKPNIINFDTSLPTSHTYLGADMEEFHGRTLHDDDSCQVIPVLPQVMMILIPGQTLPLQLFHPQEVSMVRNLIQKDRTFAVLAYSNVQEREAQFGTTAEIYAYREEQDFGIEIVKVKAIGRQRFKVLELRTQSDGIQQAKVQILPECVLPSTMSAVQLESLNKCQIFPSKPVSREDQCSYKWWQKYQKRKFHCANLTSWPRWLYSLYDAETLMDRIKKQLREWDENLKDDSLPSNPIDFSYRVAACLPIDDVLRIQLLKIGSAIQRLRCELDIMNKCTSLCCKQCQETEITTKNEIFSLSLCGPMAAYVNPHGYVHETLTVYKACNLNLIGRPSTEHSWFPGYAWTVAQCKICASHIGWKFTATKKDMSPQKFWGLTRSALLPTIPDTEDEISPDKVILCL

[2] = system: Human multiple myeloma cell (MM.1S); experiment: Tumor cell proliferation inhibition (CellTiter-Meiluncell luminescent cell viability assay); conditions: Homo sapiens, MM1.S, 96 h
CK1α = molecular target: T2, CK1α (Homo sapiens, UniProt P48729+Q96SW2); experiment: Western blot, degradation of substrate protein in hPBMCs; format: cell-based
T2 construct: effects of the compounds of the present disclosure on the expression of target proteins in cells; endogenous in cells; host or cells: human PBMCs (Milecell Biotechnologies)
T2 sequence (P48729 whole entry): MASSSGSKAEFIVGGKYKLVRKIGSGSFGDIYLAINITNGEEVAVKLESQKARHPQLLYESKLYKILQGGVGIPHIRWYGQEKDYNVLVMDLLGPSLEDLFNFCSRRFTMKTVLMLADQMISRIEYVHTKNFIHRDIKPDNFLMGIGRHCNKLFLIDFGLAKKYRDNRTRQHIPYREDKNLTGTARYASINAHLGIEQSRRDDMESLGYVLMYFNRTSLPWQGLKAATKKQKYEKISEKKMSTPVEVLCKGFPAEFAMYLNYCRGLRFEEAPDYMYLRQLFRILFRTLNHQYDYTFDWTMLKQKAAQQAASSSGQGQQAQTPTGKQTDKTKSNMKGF
T2 sequence (Q96SW2 whole entry): as the sequence (Q96SW2 whole entry) above
T2 sequence (Q16531 whole entry partner): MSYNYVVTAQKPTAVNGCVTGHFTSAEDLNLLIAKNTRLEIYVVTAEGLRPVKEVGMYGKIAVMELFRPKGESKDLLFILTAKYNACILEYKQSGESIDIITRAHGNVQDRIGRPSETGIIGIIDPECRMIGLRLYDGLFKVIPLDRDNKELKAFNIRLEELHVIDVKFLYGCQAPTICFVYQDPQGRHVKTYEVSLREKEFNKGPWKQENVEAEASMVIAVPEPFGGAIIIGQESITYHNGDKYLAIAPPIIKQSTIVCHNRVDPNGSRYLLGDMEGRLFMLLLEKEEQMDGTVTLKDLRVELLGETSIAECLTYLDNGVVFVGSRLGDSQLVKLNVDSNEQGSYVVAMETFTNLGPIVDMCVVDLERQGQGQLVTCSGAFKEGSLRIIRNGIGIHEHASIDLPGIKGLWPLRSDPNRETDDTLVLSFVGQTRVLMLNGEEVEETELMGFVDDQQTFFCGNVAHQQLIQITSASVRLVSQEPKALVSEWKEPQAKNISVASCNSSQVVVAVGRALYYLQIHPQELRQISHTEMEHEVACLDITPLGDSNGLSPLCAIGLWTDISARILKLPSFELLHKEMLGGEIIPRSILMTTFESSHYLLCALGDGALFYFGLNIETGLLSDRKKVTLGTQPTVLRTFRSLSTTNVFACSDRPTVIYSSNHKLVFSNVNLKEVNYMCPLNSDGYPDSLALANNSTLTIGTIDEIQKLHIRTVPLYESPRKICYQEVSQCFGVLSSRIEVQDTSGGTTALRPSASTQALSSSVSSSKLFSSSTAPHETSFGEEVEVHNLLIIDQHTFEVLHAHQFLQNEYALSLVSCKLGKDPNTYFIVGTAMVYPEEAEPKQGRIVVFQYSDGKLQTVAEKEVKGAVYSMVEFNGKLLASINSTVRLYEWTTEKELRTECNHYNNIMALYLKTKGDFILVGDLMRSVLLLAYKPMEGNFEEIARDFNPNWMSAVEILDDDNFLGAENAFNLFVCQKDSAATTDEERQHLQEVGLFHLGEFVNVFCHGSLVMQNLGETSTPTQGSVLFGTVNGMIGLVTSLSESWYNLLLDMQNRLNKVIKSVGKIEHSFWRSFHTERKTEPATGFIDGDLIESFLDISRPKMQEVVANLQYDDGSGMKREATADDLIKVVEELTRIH

IKZF1 = molecular target: T3, IKZF1 (Homo sapiens, UniProt Q13422+Q96SW2); experiment: as above; format: cell-based
T3 construct: effects of the compounds of the present disclosure on the expression of target proteins in cells; endogenous in cells; host or cells: human PBMCs (Milecell Biotechnologies)
T3 sequence (Q13422 whole entry): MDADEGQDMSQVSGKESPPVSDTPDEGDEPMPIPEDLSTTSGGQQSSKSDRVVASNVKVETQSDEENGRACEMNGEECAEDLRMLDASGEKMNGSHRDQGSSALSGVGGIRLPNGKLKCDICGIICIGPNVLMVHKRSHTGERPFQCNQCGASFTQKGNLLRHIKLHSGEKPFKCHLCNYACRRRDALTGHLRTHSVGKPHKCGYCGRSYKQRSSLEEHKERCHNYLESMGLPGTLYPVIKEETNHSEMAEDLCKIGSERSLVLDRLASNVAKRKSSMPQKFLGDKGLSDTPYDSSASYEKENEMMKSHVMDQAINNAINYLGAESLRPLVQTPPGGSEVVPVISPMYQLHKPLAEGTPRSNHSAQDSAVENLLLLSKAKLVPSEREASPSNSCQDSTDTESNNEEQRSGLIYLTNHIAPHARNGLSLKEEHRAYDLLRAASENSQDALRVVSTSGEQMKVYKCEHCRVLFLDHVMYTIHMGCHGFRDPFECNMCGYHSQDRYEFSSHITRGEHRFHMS
T3 sequence (Q96SW2 whole entry): as the sequence (Q96SW2 whole entry) above
T3 sequence (Q16531 whole entry partner): as the sequence (Q16531 whole entry partner) above

IKZF2 = molecular target: T4, IKZF2 (Homo sapiens, UniProt Q96SW2+Q9UKS7); experiment: as above; format: cell-based
T4 construct: effects of the compounds of the present disclosure on the expression of target proteins in cells; endogenous in cells; host or cells: human PBMCs (Milecell Biotechnologies)
T4 sequence (Q9UKS7 whole entry): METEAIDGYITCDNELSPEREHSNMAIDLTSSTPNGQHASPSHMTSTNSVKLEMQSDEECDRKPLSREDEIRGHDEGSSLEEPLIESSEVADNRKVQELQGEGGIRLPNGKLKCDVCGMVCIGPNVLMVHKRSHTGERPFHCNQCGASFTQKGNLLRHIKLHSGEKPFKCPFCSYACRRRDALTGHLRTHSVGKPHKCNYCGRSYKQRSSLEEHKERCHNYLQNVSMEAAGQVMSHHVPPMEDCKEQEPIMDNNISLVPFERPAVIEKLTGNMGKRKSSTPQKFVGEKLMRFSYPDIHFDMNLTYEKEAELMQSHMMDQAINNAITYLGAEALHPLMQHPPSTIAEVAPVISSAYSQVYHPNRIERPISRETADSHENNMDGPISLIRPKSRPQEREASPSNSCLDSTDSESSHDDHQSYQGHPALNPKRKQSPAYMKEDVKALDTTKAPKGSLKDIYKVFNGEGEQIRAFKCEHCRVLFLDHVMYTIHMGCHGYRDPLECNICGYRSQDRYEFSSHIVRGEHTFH
T4 sequence (Q96SW2 whole entry): as the sequence (Q96SW2 whole entry) above
T4 sequence (Q16531 whole entry partner): as the sequence (Q16531 whole entry partner) above

IKZF3 = molecular target: T5, IKZF3 (Homo sapiens, UniProt Q96SW2+Q9UKT9); experiment: as above; format: cell-based
T5 construct: effects of the compounds of the present disclosure on the expression of target proteins in cells; endogenous in cells; host or cells: human PBMCs (Milecell Biotechnologies)
T5 sequence (Q9UKT9 whole entry): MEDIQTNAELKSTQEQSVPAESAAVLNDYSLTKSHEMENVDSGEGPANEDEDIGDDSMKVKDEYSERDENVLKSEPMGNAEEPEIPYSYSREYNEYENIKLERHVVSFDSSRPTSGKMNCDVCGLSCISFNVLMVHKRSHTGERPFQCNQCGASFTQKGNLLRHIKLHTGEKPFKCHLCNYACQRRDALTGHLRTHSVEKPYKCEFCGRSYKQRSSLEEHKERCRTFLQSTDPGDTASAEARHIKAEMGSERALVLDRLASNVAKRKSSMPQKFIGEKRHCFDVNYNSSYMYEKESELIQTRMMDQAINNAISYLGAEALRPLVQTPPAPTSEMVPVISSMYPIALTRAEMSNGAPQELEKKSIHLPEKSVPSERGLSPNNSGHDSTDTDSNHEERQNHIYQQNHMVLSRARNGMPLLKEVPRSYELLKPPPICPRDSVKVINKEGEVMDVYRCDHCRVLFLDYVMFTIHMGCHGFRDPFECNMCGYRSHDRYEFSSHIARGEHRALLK
T5 sequence (Q96SW2 whole entry): as the sequence (Q96SW2 whole entry) above
T5 sequence (Q16531 whole entry partner): as the sequence (Q16531 whole entry partner) above

WEE1 = molecular target: T6, WEE1 (Homo sapiens, UniProt P30291+Q96SW2); experiment: as above; format: cell-based
T6 construct: effects of the compounds of the present disclosure on the expression of target proteins in cells; endogenous in cells; host or cells: human PBMCs (Milecell Biotechnologies)
T6 sequence (P30291 whole entry): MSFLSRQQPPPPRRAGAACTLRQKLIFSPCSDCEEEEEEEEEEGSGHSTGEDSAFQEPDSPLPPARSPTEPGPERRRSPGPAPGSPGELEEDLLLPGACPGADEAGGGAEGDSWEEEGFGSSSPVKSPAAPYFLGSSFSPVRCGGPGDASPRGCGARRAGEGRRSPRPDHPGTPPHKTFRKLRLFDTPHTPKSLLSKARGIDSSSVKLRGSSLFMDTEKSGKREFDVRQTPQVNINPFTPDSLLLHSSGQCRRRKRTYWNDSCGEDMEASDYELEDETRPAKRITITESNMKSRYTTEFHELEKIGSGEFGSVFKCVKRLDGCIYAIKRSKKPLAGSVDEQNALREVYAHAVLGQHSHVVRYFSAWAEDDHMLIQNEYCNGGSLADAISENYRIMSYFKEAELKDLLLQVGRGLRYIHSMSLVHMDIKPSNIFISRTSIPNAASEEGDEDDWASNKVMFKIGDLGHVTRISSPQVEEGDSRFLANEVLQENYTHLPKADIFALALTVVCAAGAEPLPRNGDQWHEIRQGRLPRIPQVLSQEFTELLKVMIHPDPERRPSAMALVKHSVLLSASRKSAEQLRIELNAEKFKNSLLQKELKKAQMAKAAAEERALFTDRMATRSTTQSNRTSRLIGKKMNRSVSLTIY
T6 sequence (Q96SW2 whole entry): as the sequence (Q96SW2 whole entry) above
T6 sequence (Q16531 whole entry partner): as the sequence (Q16531 whole entry partner) above

GSPT1 = experiment: as above; format: cell-based, Human
[3] = 24 hours treatment, compounds at 50 nM and 500 nM (concentration behind the class not stated)
[4] = Western blot, 24 hours of compound treatment, compounds tested at 50 nM and 500 nM (concentration for the table not stated)

Compound: O=C1CCC(N2Cc3c(CN4CC=C(c5ncc6ccsc6n5)CC4)cccc3C2=S)C(=O)N1 (stereo not shown) [GT-08965, 3-(4-((4-(thieno[2,3-d]pyrimidin-2-yl)-3,6-dihydropyridin-1(2H)-yl)methyl)-1-thioxoisoindolin-2-yl)piperidine-2,6-dione]
- inhibition at 0.5 µM [1]: 80 to 100%
- inhibition at 2 µM [1]: 80 to 100%
- inhibition at 0.01 µM ([2]; read-out: Inhibition Rate at 10 nM (%)): 30 to 40%
- inhibition at 0.5 µM ([2]; read-out: Inhibition Rate at 500 nM (%)): 40 to 50%

Compound: O=C1CCC(N2Cc3cc(CN4CCN(c5nc(N6CCNCC6)c6sccc6n5)CC4)ccc3C2=S)C(=O)N1 (stereo not shown) [GT-09365, 3-(5-((4-(4-(piperazin-1-yl)thieno[3,2-d]pyrimidin-2-yl)piperazin-1-yl)methyl)-1-thioxoisoindolin-2-yl)piperidine-2,6-dione]
- CK1α substrate protein remaining % (CK1α; [3]): A (0% ≤ substrate protein remaining % ≤ 80%)
- IKZF 1 substrate protein remaining % (IKZF1; [3]): A (0% ≤ substrate protein remaining % ≤ 80%)
- IKZF2 substrate protein remaining % (IKZF2; [3]): B (80%< substrate protein remaining %≤ 100%)
- IKZF3 substrate protein remaining % (IKZF3; [3]): B (80%< substrate protein remaining %≤ 100%)
- Wee1 substrate protein remaining % (WEE1; [3]): B (80%< substrate protein remaining %≤ 100%)
- GSPT1 substrate protein remaining % (GSPT1; [3]): A (0% ≤ substrate protein remaining % ≤ 80%)
- inhibition at 0.5 µM [1]: 60 to 80%
- inhibition at 2 µM [1]: 80 to 100%

Compound: O=C1CCC(N2Cc3cc(CN4CCN(c5c(Cl)ccnc5Cl)CC4)ccc3C2=S)C(=O)N1 (stereo not shown) [GT-09232, 3-(5-((4-(2,4-dichloropyridin-3-yl)piperazin-1-yl)methyl)-1-thioxoisoindolin-2-yl)piperidine-2,6-dione]
- CK1α substrate protein remaining % (CK1α; [4]): A (0% ≤ substrate protein remaining % ≤ 80%)
- IKZF 1 substrate protein remaining % (IKZF1; [4]): A (0% ≤ substrate protein remaining % ≤ 80%)
- IKZF2 substrate protein remaining % (IKZF2; [4]): A (0% ≤ substrate protein remaining % ≤ 80%)
- IKZF3 substrate protein remaining % (IKZF3; [4]): A (0% ≤ substrate protein remaining % ≤ 80%)
- Wee1 substrate protein remaining % (WEE1; [4]): A (0% ≤ substrate protein remaining % ≤ 80%)
- GSPT1 substrate protein remaining % (GSPT1; [4]): A (0% ≤ substrate protein remaining % ≤ 80%)
- inhibition at 0.5 µM [1]: 60 to 80%
- inhibition at 2 µM [1]: 80 to 100%

Compound: O=C1CCC(N2Cc3cc(CN4C[C@H]5C[C@@H]4CN5C(c4ccccc4)c4ccccc4)ccc3C2=S)C(=O)N1 (stereo partly drawn) [GT-07740, 3-(5-(((1R,4R)-5-benzhydryl-2,5-diazabicyclo[2.2.1]heptan-2-yl)methyl)-1-thioxoisoindolin-2-yl)piperidine-2,6-dione]
- CK1α substrate protein remaining % (CK1α; [4]): B (80%< substrate protein remaining %≤ 100%)
- IKZF 1 substrate protein remaining % (IKZF1; [4]): A (0% ≤ substrate protein remaining % ≤ 80%)
- IKZF2 substrate protein remaining % (IKZF2; [4]): A (0% ≤ substrate protein remaining % ≤ 80%)
- IKZF3 substrate protein remaining % (IKZF3; [4]): B (80%< substrate protein remaining %≤ 100%)
- Wee1 substrate protein remaining % (WEE1; [4]): B (80%< substrate protein remaining %≤ 100%)
- GSPT1 substrate protein remaining % (GSPT1; [4]): B (80%< substrate protein remaining %≤ 100%)
- inhibition at 0.5 µM [1]: 53 to 60%
- inhibition at 2 µM [1]: 80 to 100%

Compound: O=C1CCC(N2Cc3c(CN4CCN(c5cc(Cl)cc(Cl)c5)CC4)cccc3C2=S)C(=O)N1 (stereo not shown) [GT-08629, 3-(4-((4-(3,5-dichlorophenyl)piperazin-1-yl)methyl)-1-thioxoisoindolin-2-yl)piperidine-2,6-dione]
- CK1α substrate protein remaining % (CK1α; [4]): A (0% ≤ substrate protein remaining % ≤ 80%)
- IKZF 1 substrate protein remaining % (IKZF1; [4]): B (80%< substrate protein remaining %≤ 100%)
- IKZF2 substrate protein remaining % (IKZF2; [4]): B (80%< substrate protein remaining %≤ 100%)
- IKZF3 substrate protein remaining % (IKZF3; [4]): B (80%< substrate protein remaining %≤ 100%)
- Wee1 substrate protein remaining % (WEE1; [4]): A (0% ≤ substrate protein remaining % ≤ 80%)
- GSPT1 substrate protein remaining % (GSPT1; [4]): B (80%< substrate protein remaining %≤ 100%)
- inhibition at 0.5 µM [1]: 40 to 53%
- inhibition at 2 µM [1]: 60 to 80%

Compound: O=C1CCC(N2Cc3cc(CN4C5CC4CN(C(c4ccccc4)c4ccccc4)C5)ccc3C2=S)C(=O)N1 (stereo not shown) [GT-07738, 3-(5-((3-benzhydryl-3,6-diazabicyclo[3.1.1]heptan-6-yl)methyl)-1-thioxoisoindolin-2-yl)piperidine-2,6-dione]
- CK1α substrate protein remaining % (CK1α; [4]): B (80%< substrate protein remaining %≤ 100%)
- IKZF 1 substrate protein remaining % (IKZF1; [4]): A (0% ≤ substrate protein remaining % ≤ 80%)
- IKZF2 substrate protein remaining % (IKZF2; [4]): A (0% ≤ substrate protein remaining % ≤ 80%)
- IKZF3 substrate protein remaining % (IKZF3; [4]): B (80%< substrate protein remaining %≤ 100%)
- Wee1 substrate protein remaining % (WEE1; [4]): B (80%< substrate protein remaining %≤ 100%)
- GSPT1 substrate protein remaining % (GSPT1; [4]): A (0% ≤ substrate protein remaining % ≤ 80%)
- inhibition at 0.5 µM [1]: 53 to 60%
- inhibition at 2 µM [1]: 80 to 100%

Compound: CC1(C)CCC(CN2CCN(Cc3ccc4c(c3)CN(C3CCC(=O)NC3=O)C4=S)CC2)=C(c2ccc(Cl)cc2)C1 (stereo not shown) [GT-05151, 3-(5-((4-((4'-chloro-5,5-dimethyl-3,4,5,6-tetrahydro-[1,1'-biphenyl]-2-yl)methyl)piperazin-1-yl)methyl)-1-thioxoisoindolin-2-yl)piperidine-2,6-dione]
- CK1α substrate protein remaining % (CK1α; [4]): B (80%< substrate protein remaining %≤ 100%)
- IKZF 1 substrate protein remaining % (IKZF1; [4]): A (0% ≤ substrate protein remaining % ≤ 80%)
- IKZF2 substrate protein remaining % (IKZF2; [4]): A (0% ≤ substrate protein remaining % ≤ 80%)
- IKZF3 substrate protein remaining % (IKZF3; [4]): A (0% ≤ substrate protein remaining % ≤ 80%)
- Wee1 substrate protein remaining % (WEE1; [4]): A (0% ≤ substrate protein remaining % ≤ 80%)
- GSPT1 substrate protein remaining % (GSPT1; [4]): A (0% ≤ substrate protein remaining % ≤ 80%)
- pIC50 ([1]; CRBN binding, HTRF, 3 hours at room temperature, read-out: HTRF IC50): 6.00 to 6.30

Compound: O=C1CCC(N2Cc3c(CN4CCN(c5ccc(F)cn5)CC4)cccc3C2=S)C(=O)N1 (stereo not shown) [GT-08699, 3-(4-((4-(5-fluoropyridin-2-yl)piperazin-1-yl)methyl)-1-thioxoisoindolin-2-yl)piperidine-2,6-dione]
- CK1α substrate protein remaining % (CK1α; [4]): B (80%< substrate protein remaining %≤ 100%)
- IKZF 1 substrate protein remaining % (IKZF1; [4]): B (80%< substrate protein remaining %≤ 100%)
- IKZF2 substrate protein remaining % (IKZF2; [4]): B (80%< substrate protein remaining %≤ 100%)
- IKZF3 substrate protein remaining % (IKZF3; [4]): B (80%< substrate protein remaining %≤ 100%)
- Wee1 substrate protein remaining % (WEE1; [4]): A (0% ≤ substrate protein remaining % ≤ 80%)
- GSPT1 substrate protein remaining % (GSPT1; [4]): B (80%< substrate protein remaining %≤ 100%)
- inhibition at 0.5 µM [1]: 53 to 60%
- inhibition at 2 µM [1]: 80 to 100%

Compound: Cc1csc2ncnc(C3=CCN(Cc4ccc5c(c4)CN(C4CCC(=O)NC4=O)C5=S)CC3)c12 (stereo not shown) [GT-09315, 3-(5-((4-(5-methylthieno[2,3-d]pyrimidin-4-yl)-3,6-dihydropyridin-1(2H)-yl)methyl)-1-thioxoisoindolin-2-yl)piperidine-2,6-dione]
- CK1α substrate protein remaining % (CK1α; [3]): B (80%< substrate protein remaining %≤ 100%)
- IKZF 1 substrate protein remaining % (IKZF1; [3]): A (0% ≤ substrate protein remaining % ≤ 80%)
- IKZF2 substrate protein remaining % (IKZF2; [3]): B (80%< substrate protein remaining %≤ 100%)
- IKZF3 substrate protein remaining % (IKZF3; [3]): A (0% ≤ substrate protein remaining % ≤ 80%)
- Wee1 substrate protein remaining % (WEE1; [3]): B (80%< substrate protein remaining %≤ 100%)
- GSPT1 substrate protein remaining % (GSPT1; [3]): A (0% ≤ substrate protein remaining % ≤ 80%)
- inhibition at 0.5 µM [1]: 60 to 80%
- inhibition at 2 µM [1]: 80 to 100%

Compound: O=C1CCC(N2Cc3c(CN4C5CCC4CN(C(c4ccccc4)c4ccccc4)C5)cccc3C2=S)C(=O)N1 (stereo not shown) [GT-08235, 3-(4-((3-benzhydryl-3,8-diazabicyclo[3.2.1]octan-8-yl)methyl)-1-thioxoisoindolin-2-yl)piperidine-2,6-dione]
- CK1α substrate protein remaining % (CK1α; [4]): B (80%< substrate protein remaining %≤ 100%)
- IKZF 1 substrate protein remaining % (IKZF1; [4]): B (80%< substrate protein remaining %≤ 100%)
- IKZF2 substrate protein remaining % (IKZF2; [4]): B (80%< substrate protein remaining %≤ 100%)
- IKZF3 substrate protein remaining % (IKZF3; [4]): B (80%< substrate protein remaining %≤ 100%)
- Wee1 substrate protein remaining % (WEE1; [4]): B (80%< substrate protein remaining %≤ 100%)
- GSPT1 substrate protein remaining % (GSPT1; [4]): A (0% ≤ substrate protein remaining % ≤ 80%)
- inhibition at 0.5 µM [1]: 40 to 53%
- inhibition at 2 µM [1]: 80 to 100%

Compound: O=C1CCC(N2Cc3c(CN4CCN(c5nccc(F)c5F)CC4)cccc3C2=S)C(=O)N1 (stereo not shown) [GT-08728, 3-(4-((4-(3,4-difluoropyridin-2-yl)piperazin-1-yl)methyl)-1-thioxoisoindolin-2-yl)piperidine-2,6-dione]
- CK1α substrate protein remaining % (CK1α; [4]): B (80%< substrate protein remaining %≤ 100%)
- IKZF 1 substrate protein remaining % (IKZF1; [4]): B (80%< substrate protein remaining %≤ 100%)
- IKZF2 substrate protein remaining % (IKZF2; [4]): B (80%< substrate protein remaining %≤ 100%)
- IKZF3 substrate protein remaining % (IKZF3; [4]): B (80%< substrate protein remaining %≤ 100%)
- Wee1 substrate protein remaining % (WEE1; [4]): A (0% ≤ substrate protein remaining % ≤ 80%)
- GSPT1 substrate protein remaining % (GSPT1; [4]): B (80%< substrate protein remaining %≤ 100%)
- inhibition at 0.5 µM [1]: 53 to 60%
- inhibition at 2 µM [1]: 80 to 100%

Compound: O=C1CCC(N2Cc3c(CN4CCN(c5cccnc5)CC4)cccc3C2=S)C(=O)N1 (stereo not shown) [GT-08706, 3-(4-((4-(pyridin-3-yl)piperazin-1-yl)methyl)-1-thioxoisoindolin-2-yl)piperidine-2,6-dione]
- CK1α substrate protein remaining % (CK1α; [4]): B (80%< substrate protein remaining %≤ 100%)
- IKZF 1 substrate protein remaining % (IKZF1; [4]): B (80%< substrate protein remaining %≤ 100%)
- IKZF2 substrate protein remaining % (IKZF2; [4]): A (0% ≤ substrate protein remaining % ≤ 80%)
- IKZF3 substrate protein remaining % (IKZF3; [4]): A (0% ≤ substrate protein remaining % ≤ 80%)
- Wee1 substrate protein remaining % (WEE1; [4]): A (0% ≤ substrate protein remaining % ≤ 80%)
- GSPT1 substrate protein remaining % (GSPT1; [4]): A (0% ≤ substrate protein remaining % ≤ 80%)
- inhibition at 0.5 µM [1]: 53 to 60%
- inhibition at 2 µM [1]: 80 to 100%
